According to US11358968B2, “Substituted epoxyeicosatrienoic acid (EET) analogs for treatment of kidney disease” (THE MEDICAL COLLEGE OF WISCONSIN, INC., priority 2017, dated 2022):
Entries after “also recorded” stand apart in the source; their conditions may differ. Read-outs that look alike come from different tables or passages of the source.

Key:
[1] = earlier filings PCT/US2012/032090, US 9,422,318, US 9,127,027; cited from earlier work
[2] = Acute i.v. infusion in rats; plasma and kidney levels by LC-MS-MS; type: in vivo, rat; conditions: for concentration at 6 h: male, Sprague-Dawley, intravenous
Description: For EET analog kidney-targeted delivery, we conjugated an EET analog to folic acid because there is a high concentration of folate receptors in renal tissue. The EET analog was conjugated to folic acid via a PEG-diamine linker. Next, we compared the kidney targeted EET analog, EET-FO1, to a well-studied EET analog, EET-A. EET-A or EET-FO1 was infused i.v. (10 mg/kg/hr) for 6 hours via the rat jugular vein. Plasma and kidney tissue were collected and EET-A or EET-FO1 measured by LC-MS-MS. EET-A plasma level was 1.6 ng/mL, but EET-A was undetectable in the kidney. On the other hand, EET-FO1 was 6.5 ng/mL in plasma and 26.7 ng/mL in kidney tissue. […] Experiments were conducted to compare EET-FO1 and EET-A to decrease cisplatin-induced nephrotoxicity. […] Despite it almost 2×-greater molecular weight compared with EET-A, EET-FO1 was effective in lowering BUN and NAG at 20 mg/kg/d and at a 10-fold lower dose of 2 mg/kg/d.
Acute study: Overnight fasted (12-14 hrs) male SD rats (10 weeks old) were anesthetized with sodium pentobarbital (60 mg/kg, i.p.). After a tracheostomy, the left jugular vein was cannulated to continuously infuse vehicle or EET-A or folate conjugated EET analog at a rate of 6 ml/kg/hr for 6 hours. Plasma and kidney sample were collected at the end of the protocol, snap-frozen in liquid nitrogen and stored at −80° C. until analyzed for LC-MS. EET-A and folate conjugated EET analog solutions were prepared in 0.1% DMSO and 1% PEG-400 in saline.
Mass spectrometric analysis: Plasma and kidney levels of EET-A and folate conjugated EET-A were measured by LC-ESI-MS method. Samples were prepared from 200 μl of plasma or kidney homogenate from EET-A or folate conjugated EET-A treated rats using solid phase extraction with Varian Bond Elut® C18 column (Agilent Technologies, Santa Clara, Calif., USA). The extracted samples were stored at −80° C. before analysis. Samples were warmed to room temperature, dried in a stream of nitrogen and the residue reconstituted in 20 μL of acetonitrile, […]. Components were resolved on a 250 mm×2.0 mm Kromasil C18-column packed with 5 μm diameter particles having 100 Å pores. Gradient elution from 80% A to 10% A was used with elutant flow of 0.2 mL/min. Solvent A was water with 0.01% formic acid and solvent B was acetonitrile with 0.01% formic acid using the following profile: 20% B to 30% B in 10 min, 30% B to 60% B in 17 min, 60% B to 90% B in 28 min, hold at 100% for 7 min, then 7 min re-equilibration. MS/MS analysis was performed on an Agilent 6460 triple quadrupole mass spectrometer equipped with a Jet Stream™ interface. Precursor ion, product ion, collision energy and fragmenter voltage were optimized for each compound in negative polarity. Other parameters were as follows: drying gas flow=10 L/min at 325° C., nebulizer=20 psi, sheath gas flow=11 L/min at 325° C., capillary=3.5 kV, and nozzle=1.0 kV. Results acquired at unit-mass resolution.

WKY rats = assay: Cisplatin-induced nephrotoxicity in WKY rats (chronic study; BUN, NAG, renal histology); type: in vivo, rat; conditions: for lowering BUN / lowering NAG: cisplatin-treated WKY rats
Description: For EET analog kidney-targeted delivery, we conjugated an EET analog to folic acid because there is a high concentration of folate receptors in renal tissue. The EET analog was conjugated to folic acid via a PEG-diamine linker. Next, we compared the kidney targeted EET analog, EET-FO1, to a well-studied EET analog, EET-A. EET-A or EET-FO1 was infused i.v. (10 mg/kg/hr) for 6 hours via the rat jugular vein. Plasma and kidney tissue were collected and EET-A or EET-FO1 measured by LC-MS-MS.
Chronic study: In chronic study, male Wistar-Kyoto (WKY) rats weighing 180-200 g (Charles River, Mass., USA) were used. The rats were assigned into […] (n=4 in each group). […] While, rats of groups 2,3,4&5 were pre-treated with vehicle (20% DMSO in PEG-400 v/v), EET analog (EET analog in double distilled water) or novel folate conjugated EET analog F01 at 20 mg/kg and 2 mg/kg doses (prepared in a mixture of 20% DMSO in PEG400), respectively in osmotic mini pump (2 ML, Alzet, Cupertino, C A) for seven days. […] One day before euthanasia, the urine of each rat was collected over a 24-h period. […] A schematic of the protocol is depicted in FIG. 1.
Biochemical analysis:The levels of blood urea nitrogen (BUN) (BioAssay Systems, Hayward, Calif., USA) and the activity of urinary N-acetyl-β-(D)-glucosaminidase (NAG) in the urine was measured by a kit from Diazyme (Diazyme Laboratories, Poway, Calif., USA).

[3] = rat, i.v. infusion 10 mg/kg/hr for 6 hours via jugular vein, LC-MS-MS
[4] = five days following cisplatin 7 mg/kg ip, compared with EET-A 10 mg/kg ip

**Q.** With `CCCCCNC(=O)NCCCC/C=C\CCCCCCC(=O)N[C@@H](CC(=O)O)C(=O)O` [EET-A, reference compound] as the compound, how does the “oral activity and pharmacokinetic properties” value [1] read?
**A.** orally active with good pharmacokinetic properties

**Q.** And the “level in kidney tissue” value [2, 3]?
**A.** undetectable; also recorded: almost un-detectable

**Q.** And the plasma level [2, 3]?
**A.** 1.6 ng/mL

**Q.** For `CCCCCCC(=O)N(CCCCCOc1cccc2sc(NC(=O)C(C)(C)C)nc12)C(C)C` [EET-B], which “oral activity and pharmacokinetic properties” value [1] is on record?
**A.** orally active with good pharmacokinetic properties

**Q.** Which “rate of reaching the plasma and the kidney, versus non-folate conjugated form” value ([2]; acute i.v. study) does the source give for `CCCCCNC(=O)NCCCC/C=C\CCCCCCC(=O)NCCOCCOCCNC(=O)CC[C@H](NC(=O)c1ccc(NCc2cnc3nc(N)[nH]c(=O)c3n2)cc1)C(=O)O` [EET-FO1] here?
**A.** faster rate

**Q.** And the “plasma level of F01 compared to EET-A” value ([2]; after 6-hour continuous i.v. administration of equal doses (FIG. 2))?
**A.** 5 fold

**Q.** What about the kidney targeting ([2]; conclusion from plasma and kidney levels after 6 h i.v. infusion) of the same compound?
**A.** targets the kidney

**Q.** What about the concentration at 6 h ([2]; kidney, rat, i.v. infusion 10 mg/kg/hr for 6 hours via jugular vein, LC-MS-MS, read-out: level in kidney tissue) of the same compound?
**A.** 26.7 ng/mL

**Q.** And the concentration at 6 h ([2]; plasma, rat, i.v. infusion 10 mg/kg/hr for 6 hours via jugular vein, LC-MS-MS, read-out: plasma level)?
**A.** 6.5 ng/mL

**Q.** What about the “lowering BUN” value (WKY rats; 2 mg/kg/d) of the same compound?
**A.** effective

**Q.** What about the “lowering NAG” value (WKY rats; 2 mg/kg/d) of the same compound?
**A.** effective

**Q.** What about the “lowering BUN” value (WKY rats; 20 mg/kg/d) of the same compound?
**A.** effective

**Q.** What about the “lowering NAG” value (WKY rats; 20 mg/kg/d) of the same compound?
**A.** effective

**Q.** And the “decreasing BUN” value (WKY rats; [4])?
**A.** as effective as EET-A

**Q.** What about the “decreasing NAG” value (WKY rats; [4]) of the same compound?
**A.** as effective as EET-A

**Q.** And the “decreasing renal histological injury” value (WKY rats; [4])?
**A.** as effective as EET-A

**Q.** And the “kidney protective action against cisplatin nephrotoxicity compared to EET-A (from BUN and urinary NAG)” value (WKY rats; pre-treatment, then 5 days treatment after cisplatin (FIG. 3), listed as F01)?
**A.** better kidney protective action; also recorded: superior kidney protective action
